Assay results reported in ChEMBL document CHEMBL2062517, “Design, synthesis, and antiviral activity of entry inhibitors that target the CD4-binding site of HIV-1” (J Med Chem, 2012).

Legend:
Assay type in all cases: cell-based
[1] = Inhibition of X4-tropic HIV1 HXB2 gp120-mediated entry into human TZM-b1 cells expressing CD4,CXCR4,CCR5,luciferase and beta-galactosidase after 3 days by single cycle neutralization assay; conditions: Human immunodeficiency virus 1, HXB2, TZM-b1, 72 h
[2] = Inhibition of X4-tropic HIV1 3B gp120-mediated entry into human MT2 cells assessed as Inhibition of p24 production incubated overnight followed by compound wash-out measured after 4 days post-infection by multi-cycle neutralization assay; conditions: Human immunodeficiency virus 1, 3B, MT2, 96 h
[3] = Cytotoxicity against human TZM-b1 cells after 3 days by XTT assay; conditions: for CC50 at 72 h: TZM-b1 cells; for CC50: tzm-b1, 72 h
MT2 [4] = experiment: (§1) Cytotoxicity against human MT2 cells after 4 days by XTT assay; conditions: mt2, 96 h
[5] = Cytotoxicity against human TZM-b1 cells at >74 uM after 3 days by XTT assay; conditions: tzm-b1, 72 h
[6] = as §1; conditions: MT2 cells
[7] = Cytotoxicity against human TZM-b1 cells at >60 uM after 3 days by XTT assay; conditions: tzm-b1, 72 h
[8] = Cytotoxicity against human TZM-b1 cells at >75.5 uM after 3 days by XTT assay; conditions: tzm-b1, 72 h
[9] = Cytotoxicity against human TZM-b1 cells at >87 uM after 3 days by XTT assay; conditions: tzm-b1, 72 h
[10] = Cytotoxicity against human TZM-b1 cells at >77.8 uM after 3 days by XTT assay; conditions: tzm-b1, 72 h
[11] = Cytotoxicity against human TZM-b1 cells at >90 uM after 3 days by XTT assay; conditions: tzm-b1, 72 h
[12] = Cytotoxicity against human TZM-b1 cells at >88 uM after 3 days by XTT assay; conditions: tzm-b1, 72 h
MT2 [13] = experiment: Cytotoxicity against human MT2 cells at >88 uM after 4 days by XTT assay; conditions: mt2, 96 h
[14] = Cytotoxicity against human TZM-b1 cells at >78.2 uM after 3 days by XTT assay; conditions: tzm-b1, 72 h
[15] = Cytotoxicity against human TZM-b1 cells at >75.8 uM after 3 days by XTT assay; conditions: tzm-b1, 72 h
[16] = Cytotoxicity against human TZM-b1 cells at >85 uM after 3 days by XTT assay; conditions: tzm-b1, 72 h
MT2 [17] = experiment: Cytotoxicity against human MT2 cells at >41 uM after 4 days by XTT assay; conditions: mt2, 96 h
[18] = Cytotoxicity against human TZM-b1 cells at >22 uM after 3 days by XTT assay; conditions: tzm-b1, 72 h
MT2 [19] = experiment: Cytotoxicity against human MT2 cells at >[…] after 4 days by XTT assay; conditions: mt2, 96 h
MT2 [20] = experiment: Cytotoxicity against human MT2 cells at >62 uM after 4 days by XTT assay; conditions: mt2, 96 h
[21] = Cytotoxicity against human TZM-b1 cells at >84 uM after 3 days by XTT assay; conditions: tzm-b1, 72 h

Compound	IC50 [1] [µM]	IC50 [2] [µM]	CC50 at 72 h [3] [µM]	CC50 (MT2 [4]) [µM]	also measured
CCn1cc(NC(=O)C(=O)Nc2ccc(Cl)cc2)cn1	5.9	11.9	8	10.7	–
COC(=O)[C@@H]1C[C@@H](NC(=O)C(=O)Nc2ccc(Cl)cc2)[C@H](c2ccccc2)N1	> 99.6	> 24.9	> 99.6	–	–
C[C@@H](NC(=O)C(=O)Nc1ccc(Cl)cc1)[C@H](c1ccccc1)N1CCOCC1	> 99.6	> 24.9	> 99.6	–	–
Cc1nc(C(NC(=O)C(=O)Nc2ccc(C(F)(F)F)cc2)C2CCCCN2)sc1CCO (stereo unspecified)	4.9	17.4	> 74	> 39	Activity [5]: 35%
CC1(C)CC(NC(=O)C(=O)Nc2ccc(Cl)cc2)CC(C)(C)N1	4.2	8	> 60	–	CC50 at 96 h [6]: 150 µM; Activity [7]: 10%
Cc1nc(C(NC(=O)C(=O)Nc2ccc(C(F)(F)F)cc2)C2CCCCN2)sc1CO (mixture of isomers)	10.3	4.6	> 75.5	–	Activity [8]: 10%
Cc1nc(C(NC(=O)C(=O)Nc2ccc(F)cc2F)C2CCCCN2)sc1CO (mixture of isomers)	> 87	110	> 87	> 110	–
Cc1nc(C(NC(=O)C(=O)Nc2ccc(F)c(F)c2)C2CCCCN2)sc1CO (mixture of isomers)	8.4	14	> 87	–	Activity [9]: 0%
CC(=O)c1ccc(NC(=O)C(=O)NC(c2nc(C)c(CO)s2)C2CCCCN2)cc1 (mixture of isomers)	> 86	107	> 86	> 107	–
Cc1nc(C(NC(=O)C(=O)Nc2ccc(F)c(Cl)c2)C2CCCCN2)sc1CO (mixture of isomers)	6.5	9.5	> 77.8	–	Activity [10]: 0%
Cc1nc(C(NC(=O)C(=O)Nc2ccc(F)cc2)C2CCCCN2)sc1CO (mixture of isomers)	7.4	47.9	> 90	> 113	Activity [11]: 0%
Cc1ccc(NC(=O)C(=O)NC(c2nc(C)c(CO)s2)C2CCCCN2)c(F)c1 (mixture of isomers)	> 88	66	> 88	> 109	–
Cc1nc(C(NC(=O)C(=O)Nc2ccc(Cl)c(F)c2)C2CCCCN2)sc1CO (mixture of isomers)	1.6	3.8	58.4	–	CC50 at 96 h [6]: 77.8 µM
Cc1ccc(NC(=O)C(=O)NC(c2nc(C)c(CO)s2)C2CCCCN2)cc1F (mixture of isomers)	2.7	5.3	> 88	–	Activity [12]: 0%; Activity (MT2 [13]): 30%
Cc1nc(C(NC(=O)C(=O)NC2CCCCCC2)C2CCCCN2)sc1CO (mixture of isomers)	> 90	39.3	> 90	–	–
Cc1nc(C(NC(=O)C(=O)Nc2ccc(F)cc2F)C2CCCCN2)sc1CCO (mixture of isomers)	> 84	> 105	> 84	> 105	–
Cc1nc(C(NC(=O)C(=O)Nc2ccc(F)c(F)c2)C2CCCCN2)sc1CCO (mixture of isomers)	8.2	24.1	> 78.2	–	Activity [14]: 10%
CC(=O)c1ccc(NC(=O)C(=O)NC(c2nc(C)c(CCO)s2)C2CCCCN2)cc1 (mixture of isomers)	> 77.3	24.5	> 77.3	> 48.3	–

Compound	IC50 [1] [µM]	IC50 [2] [µM]	CC50 at 72 h [3] [µM]	CC50 (MT2 [4]) [µM]	also measured
Cc1nc(C(NC(=O)C(=O)Nc2ccc(F)c(Cl)c2)C2CCCCN2)sc1CCO (mixture of isomers)	9	19.5	> 75.8	–	CC50 at 96 h [6]: 94.7 µM; Activity [15]: 20%
Cc1nc(C(NC(=O)C(=O)Nc2ccc(F)cc2)C2CCCCN2)sc1CCO (mixture of isomers)	22	21.6	> 88	–	CC50 at 96 h [6]: 109 µM
Cc1ccc(NC(=O)C(=O)NC(c2nc(C)c(CCO)s2)C2CCCCN2)c(F)c1 (mixture of isomers)	> 78.8	45.8	> 78.8	–	–
Cc1ccc(NC(=O)C(=O)NC(c2nc(C)c(CCO)s2)C2CCCCN2)cc1F (mixture of isomers)	1.66	3.7	> 85	–	CC50 at 96 h [6]: 85 µM; Activity [16]: 40%
Cc1nc(C(NC(=O)C(=O)Nc2ccc(Cl)c(F)c2)C2CCCCN2)sc1CCO (mixture of isomers)	1.98	3.5	61	> 41	Activity (MT2 [17]): 10%
Cc1nc(C(NC(=O)C(=O)NC2CCCCCC2)C2CCCCN2)sc1CCO (mixture of isomers)	> 88	19.6	> 88	–	CC50 at 96 h [6]: 60 µM
Cc1nc(C(NC(=O)C(=O)Nc2ccc(Cl)cc2)C2CCCCN2)sc1CO (mixture of isomers)	4.3	4.7	> 22	> 108	Activity [18]: 10%; Activity (MT2 [19]): 40%
Cc1nc(C(NC(=O)C(=O)Nc2ccc(Cl)cc2)C2CCCNC2)sc1CO (mixture of isomers)	1.4	12	60.2	> 81	–
Cc1nc(C(NC(=O)C(=O)Nc2ccc(Cl)cc2)C2CCCCN2)sc1CCO (mixture of isomers)	4.6	4.2	–	> 62	CC50 [3]: 32.8 µM; Activity (MT2 [20]): 0%
Cc1nc(C(NC(=O)C(=O)Nc2ccc(Cl)cc2)C2CCCNC2)sc1CCO (mixture of isomers)	0.65	13.1	59.4	> 78.5	–
Cc1nc(C(NC(=O)C(=O)Nc2ccc(Cl)cc2)C2CCCCN2C)sc1CCO (mixture of isomers)	1.9	28.6	–	–	CC50 [3]: 36 µM; CC50 at 96 h [6]: 88 µM
CC(=O)N1CCCCC1C(NC(=O)C(=O)Nc1ccc(Cl)cc1)c1nc(C)c(CCO)s1 (mixture of isomers)	19.7	> 52	> 84	–	Activity [21]: 20%
Cc1nc(C(NC(=O)C(=O)Nc2ccc(Cl)cc2)C2CCCN2)sc1CO (mixture of isomers)	4.8	15.4	–	–	CC50 [3]: 12.4 µM; CC50 at 96 h [6]: 45 µM
Cc1nc(C(NC(=O)C(=O)Nc2ccc(Cl)cc2)C2CCCN2)sc1CCO (mixture of isomers)	4.2	16.2	4.9	–	CC50 at 96 h [6]: 42 µM
Cc1nc(C(NC(=O)C(=O)Nc2ccc(Cl)cc2)C2CCNCC2)sc1CO (racemic)	0.83	29.8	81	> 81	–
Cc1nc(C(NC(=O)C(=O)Nc2ccc(Cl)cc2)C2CCNCC2)sc1CCO (racemic)	1	30.5	85.4	> 78.5	–
CNCC(NC(=O)C(=O)Nc1ccc(Cl)cc1)c1nc(C)c(CCO)s1 (racemic)	2.8	24.3	–	> 43	CC50 [3]: 16.6 µM
